Structures can show the parent of a compound that is named as a salt.

For the first assay, the target named is human SPR (Homo sapiens (Human), UniProt P35270). As to the kind of experiment: Evaluation Example 2: Measurement of human SPR inhibitory activity (seven concentrations, sepiapterin absorbance at 420 nm). In kind it is biochemical. To be noted: Evaluation Example 2, seven concentrations 0.14 nM to 100 nM, 240 minutes at room temperature, read-out: IC50. The method, boiled down: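 Reactions ran 240 min at room temperature in 100 mM Tris-HCl pH 7.5 with 0.01% BSA. They contained tag-cleaved, E. coli-expressed full-length human SPR (diluted to 150 ng/mL), seven compound concentrations from 0.14 to 100 nM, and sepiapterin/NADPH added as a 120 μM/160 μM solution. Inhibition was calculated from sepiapterin absorbance at 420 nm.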
Chain of human SPR (P35270 whole entry): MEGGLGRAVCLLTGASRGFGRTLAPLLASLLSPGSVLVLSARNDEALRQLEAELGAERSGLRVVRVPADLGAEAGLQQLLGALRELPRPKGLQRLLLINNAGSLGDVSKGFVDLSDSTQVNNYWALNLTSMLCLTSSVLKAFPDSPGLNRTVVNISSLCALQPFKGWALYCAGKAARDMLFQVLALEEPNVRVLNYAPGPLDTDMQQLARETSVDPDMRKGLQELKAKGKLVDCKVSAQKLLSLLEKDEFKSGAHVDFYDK
`CNc1nn2c(O)c(C(=O)NC3CC3)c(=O)n(CC3(C)CCOCC3)c2c1/C=C/C1CCOCC1` [compound 585, (E)-N-Cyclopropyl-7-hydroxy-2-(methylamino)-4-((4-methyltetrahydro-2H-pyran-4-yl)methyl)-5-oxo-3-(2-(tetrahydro-2H-pyran-4-yl)vinyl)-4,5-dihydropyrazolo[1,5-a]pyrimidine-6-carboxamide]: the IC50 was 1.23 nM. Still for that read-out and setting: the same measure for `CC(C)Cn1c(=O)c(C(=O)NC2CC2)c(O)n2ncc(/C=C/C(=O)N3CCC(C(F)F)CC3)c12` [compound 466, (E)-N-Cyclopropyl-3-(3-(4-(difluoromethyl)piperidin-1-yl)-3-oxoprop-1-en-1-yl)-7-hydroxy-4-isobutyl-5-oxo-4,5-dihydropyrazolo[1,5-a]pyrimidine-6-carboxamide]: 1.27 nM.

Take `CNc1ncccc1-c1cc2n(CC(C)(C)C)c(=O)c(C(=O)NC3CC3)c(O)n2n1` [Synthesis Example 309, N-Cyclopropyl-7-hydroxy-2-(2-(methylamino)pyridin-3-yl)-4-neopentyl-5-oxo-4,5-dihydropyrazolo[1,5-a]pyrimidine-6-carboxamide]: the IC50 is 22.9 nM. The same measure, in the same setting: the result for `CC(C)(C)Cn1c(=O)c(C(=O)NC2CC2)c(O)n2nc(-c3n[nH]cc3C#N)cc12` [Synthesis Example 292, 2-(4-Cyano-1H-pyrazol-3-yl)-N-cyclopropyl-7-hydroxy-4-neopentyl-5-oxo-4,5-dihydropyrazolo[1,5-a]pyrimidine-6-carboxamide] reads 1.32 nM. Still for that read-out and setting: the result for `Cc1nn2c(O)c(C(=O)NC3CC3)c(=O)n(CC(C)C)c2c1/C=C/C(=O)N1CCC[C@H]1C(C)(C)O` [Synthesis Example 677, (S,E)-N-Cyclopropyl-7-hydroxy-3-(3-(2-(2-hydroxypropan-2-yl)pyrrolidin-1-yl)-3-oxoprop-1-en-1-yl)-4-isobutyl-2-methyl-5-oxo-4,5-dihydropyrazolo[1,5-a]pyrimidine-6-carboxamide] reads 0.95 nM; that for `CC(C)(C)Cn1c(=O)c(C(=O)NC2CC2)c(O)n2nc3c(c12)CCN3` [Synthesis Example 396, N-Cyclopropyl-7-hydroxy-4-neopentyl-5-oxo-2,3,4,5-tetrahydro-1H-pyrrolo[2′,3′:3,4]pyrazolo[1,5-a]pyrimidine-6-carboxamide], 1.35 nM; that for `CC(C)Cn1c(=O)c(C(=O)NCC(F)(F)F)c(O)n2nc(Nc3cnccn3)cc12` [Synthesis Example 348, 7-Hydroxy-4-isobutyl-5-oxo-2-(pyrazin-2-ylamino)-N-(2,2,2-trifluoroethyl)-4,5-dihydropyrazolo[1,5-a]pyrimidine-6-carboxamide], 2.84 nM. Still for that read-out and setting: the same measure for `CC(C)Cn1c(=O)c(C(=O)NC2CC2)c(O)n2nc(N)c(/C=C/C(C)(C)C)c12` [Synthesis Example 439, (E)-2-Amino-N-cyclopropyl-3-(3,3-dimethylbut-1-en-1-yl)-7-hydroxy-4-isobutyl-5-oxo-4,5-dihydropyrazolo[1,5-a]pyrimidine-6-carboxamide hydrochloride]: 1.61 nM; for `COc1cnc(-c2cc3n(CC(C)(C)C)c(=O)c(C(=O)NC4CC4)c(O)n3n2)cn1` [Synthesis Example 300, N-Cyclopropyl-7-hydroxy-2-(5-methoxypyrazin-2-yl)-4-neopentyl-5-oxo-4,5-dihydropyrazolo[1,5-a]pyrimidine-6-carboxamide]: 9.44 nM; for `CC(C)(C)Cn1c(=O)c(C(=O)NC2CC2)c(O)n2nc(-c3[nH]ncc3C(=O)NCC3CCOCC3)cc12` [Synthesis Example 315, N-Cyclopropyl-7-hydroxy-4-neopentyl-5-oxo-2-(4-(((tetrahydro-2H-pyran-4-yl)methyl)carbamoyl)-1H-pyrazol-5-yl)-4,5-dihydropyrazolo[1,5-a]pyrimidine-6-carboxamide hydrochloride]: 1.11 nM. `CC(C)(C)Cn1c(=O)c(C(=O)NC2CC2)c(O)n2nc(-c3cn[nH]c3C#N)cc12` [Synthesis Example 301]: the IC50 turned out to be 1.22 nM. The same measure, in the same setting: the result for `COC(C)(C)Cn1c(=O)c(C(=O)NC2CC2)c(O)n2nc(-c3cccnc3N)cc12` [Synthesis Example 271, 2-(2-Aminopyridin-3-yl)-N-cyclopropyl-7-hydroxy-4-(2-methoxy-2-methylpropyl)-5-oxo-4,5-dihydropyrazolo[1,5-a]pyrimidine-6-carboxamide] reads 1.08 nM. On the same count and under the same terms, the result for `Cc1nn2c(O)c(C(=O)NC3CC3)c(=O)n(CC(C)C)c2c1/C=C/C(=O)N1CCOCC1` [compound 563, (E)-N-Cyclopropyl-7-hydroxy-4-isobutyl-2-methyl-3-(3-morpholino-3-oxoprop-1-en-1-yl)-5-oxo-4,5-dihydropyrazolo[1,5-a]pyrimidine-6-carboxamide] reads 0.7 nM; that for `CC(C)(C)Cn1c(=O)c(C(=O)NC2CC2)c(O)n2nc(-c3cc(C#N)n[nH]3)cc12` [Synthesis Example 296, 2-(3-Cyano-1H-pyrazol-5-yl)-N-cyclopropyl-7-hydroxy-4-neopentyl-5-oxo-4,5-dihydropyrazolo[1,5-a]pyrimidine-6-carboxamide], 2.93 nM; that for `Cc1nn2c(O)c(C(=O)NC3CC3)c(=O)n(CC(C)C)c2c1/C=C/C(=O)N1CCOC[C@H]1C` [compound 570, (R,E)-N-Cyclopropyl-7-hydroxy-4-isobutyl-2-methyl-3-(3-(3-methylmorpholino)-3-oxoprop-1-en-1-yl)-5-oxo-4,5-dihydropyrazolo[1,5-a]pyrimidine-6-carboxamide], 0.75 nM.

Turning to `Nc1ncccc1-c1cc2n(CC3CCOCC3)c(=O)c(C(=O)NC3CC3)c(O)n2n1` [Synthesis Example 290, 2-(2-Aminopyridin-3-yl)-N-cyclopropyl-7-hydroxy-5-oxo-4-((tetrahydro-2H-pyran-4-yl)methyl)-4,5-dihydropyrazolo[1,5-a]pyrimidine-6-carboxamide], the IC50 amounted to 0.93 nM. The same measure, in the same setting: the result for `CC(C)Cn1c(=O)c(C(=O)NC2CC2)c(O)n2ncc(/C=C/C(=O)N3CCC[C@@H](CO)C3)c12` [compound 520, (R,E)-N-Cyclopropyl-7-hydroxy-3-(3-(3-(hydroxymethyl)piperidin-1-yl)-3-oxoprop-1-en-1-yl)-4-isobutyl-5-oxo-4,5-dihydropyrazolo[1,5-a]pyrimidine-6-carboxamide] reads 0.77 nM; that for `CC(C)Cn1c(=O)c(C(=O)NC2CC2)c(O)n2ncc(/C=C/C(=O)N3CCc4cccnc43)c12` [compound 594, (E)-N-Cyclopropyl-3-(3-(2,3-dihydro-1H-pyrrolo[2,3-b]pyridin-1-yl)-3-oxoprop-1-en-1-yl)-7-hydroxy-4-isobutyl-5-oxo-4,5-dihydropyrazolo[1,5-a]pyrimidine-6-carboxamide], 2.01 nM; that for `CN1Cc2c(nn3c(O)c(C(=O)NC4CC4)c(=O)n(CC(C)(C)C)c23)NC1=O` [Synthesis Example 406, N-Cyclopropyl-8-hydroxy-3-methyl-5-neopentyl-2,6-dioxo-1,2,3,4,5,6-hexahydropyrazolo[1,5-a:3,4-d′]dipyrimidine-7-carboxamide], 0.93 nM. Same read-out and setting: the result for `CN(CC#N)C(=O)c1cnc(Nc2cc3n(CC(C)(C)C)c(=O)c(C(=O)NC4CC4)c(O)n3n2)cn1` [Synthesis Example 358, 2-((5-((Cyanomethyl)(methyl)carbamoyl)pyrazin-2-yl)amino)-N-cyclopropyl-7-hydroxy-4-neopentyl-5-oxo-4,5-dihydropyrazolo[1,5-a]pyrimidine-6-carboxamide] reads 0.87 nM; that for `Cc1nn2c(O)c(C(=O)NC3CC3)c(=O)n(CC(C)C)c2c1/C=C/C(=O)N(C)Cc1cccnc1` [Synthesis Example 637, (E)-N-Cyclopropyl-7-hydroxy-4-isobutyl-2-methyl-3-(3-(methyl(pyridin-3-ylmethyl)amino)-3-oxoprop-1-en-1-yl)-5-oxo-4,5-dihydropyrazolo[1,5-a]pyrimidine-6-carboxamide], 0.89 nM; that for `CC(C)Cn1c(=O)c(C(=O)NC2CC2)c(O)n2nc(N)c(/C=C/C(=O)N3CCOC[C@@H]3C)c12` [Synthesis Example 417, (S,E)-2-Amino-N-cyclopropyl-7-hydroxy-4-isobutyl-3-(3-(3-methylmorpholino)-3-oxoprop-1-en-1-yl)-5-oxo-4,5-dihydropyrazolo[1,5-a]pyrimidine-6-carboxamide hydrochloride], 0.59 nM.

The same assay, now with this note: sepiapterin absorbance, Table 41, read-out: concentration at 50% inhibition of human SPR (IC50).
`CC(C)Cn1c(=O)c(C(=O)NC2CC2)c(O)n2ncc(/C=C/C(=O)N3CCN(CC4CC(F)(F)C4)C[C@@H]3C)c12` [Synthesis Example 744, (S,E)-N-Cyclopropyl-3-(3-(4-((3,3-difluorocyclobutyl)methyl)-2-methylpiperazin-1-yl)-3-oxoprop-1-en-1-yl)-7-hydroxy-4-isobutyl-5-oxo-4,5-dihydropyrazolo[1,5-a]pyrimidine-6-carboxamide]: the IC50 was 1.57 nM. The same measure, in the same setting: the same measure for `CC(C)Cn1c(=O)c(C(=O)NC2CC2)c(O)n2ncc(/C=C/C(=O)N3CC4CCC(C3)C4(F)F)c12` [Synthesis Example 720, (E)-N-Cyclopropyl-3-(3-(8,8-difluoro-3-azabicyclo[3.2.1]octan-3-yl)-3-oxoprop-1-en-1-yl)-7-hydroxy-4-isobutyl-5-oxo-4,5-dihydropyrazolo[1,5-a]pyrimidine-6-carboxamide]: 1.03 nM. Take `Cc1nn2c(O)c(C(=O)NC3CC3)c(=O)n(CC(C)C)c2c1/C=C/C(=O)N1CCN(C)C[C@H]1C` [Synthesis Example 702, (R,E)-N-Cyclopropyl-3-(3-(2,4-dimethylpiperazin-1-yl)-3-oxoprop-1-en-1-yl)-7-hydroxy-4-isobutyl-2-methyl-5-oxo-4,5-dihydropyrazolo[1,5-a]pyrimidine-6-carboxamide]: the IC50 was determined as 0.87 nM.
